The text below walks through data of PMC3383625 (Chemistry & biology, 2012).

Values joined by “and” are separate entries in the source; they are usually repeats but may differ in a detail not shown here. Equal values may be shown once. Read-outs that look alike come from different tables or passages of the source. rhodamine = not defined here

Assay [1] has as its target T1, Nox2 (Homo sapiens, UniProt P04839). The assay can be described thus: Cell-free assay for Nox2-dependent superoxide generation. In kind it is biochemical.
Target sequence in this assay (P04839 2-570 limits assumed, one chain of several): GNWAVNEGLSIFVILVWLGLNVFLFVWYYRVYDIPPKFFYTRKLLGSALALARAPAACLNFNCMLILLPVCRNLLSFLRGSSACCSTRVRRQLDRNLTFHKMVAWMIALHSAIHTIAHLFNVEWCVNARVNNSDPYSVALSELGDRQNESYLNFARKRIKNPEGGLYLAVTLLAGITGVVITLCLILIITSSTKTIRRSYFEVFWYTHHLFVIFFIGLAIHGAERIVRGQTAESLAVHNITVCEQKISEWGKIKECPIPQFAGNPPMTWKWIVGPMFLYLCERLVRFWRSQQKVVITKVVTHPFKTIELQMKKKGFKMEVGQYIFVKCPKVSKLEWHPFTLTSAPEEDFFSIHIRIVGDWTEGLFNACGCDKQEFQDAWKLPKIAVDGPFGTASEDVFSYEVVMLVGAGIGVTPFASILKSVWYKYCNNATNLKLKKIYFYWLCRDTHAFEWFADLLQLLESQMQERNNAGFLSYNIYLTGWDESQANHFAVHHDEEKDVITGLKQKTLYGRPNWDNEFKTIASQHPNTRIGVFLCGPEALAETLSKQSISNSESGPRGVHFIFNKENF
Assay [2] addresses T1, Nox2. The experiment in a line: Nox2 activity in intact PMA-stimulated neutrophils. In kind it is cell-based.
Target sequence in this assay (P04839 2-570 limits assumed, one chain of several): as above
Assay [3] concerns the target T2, bis-SH3 domain of p47phox (binding of the PRD of p22phox) (Homo sapiens, UniProt P14598).
T2 sequence (P14598 156-285): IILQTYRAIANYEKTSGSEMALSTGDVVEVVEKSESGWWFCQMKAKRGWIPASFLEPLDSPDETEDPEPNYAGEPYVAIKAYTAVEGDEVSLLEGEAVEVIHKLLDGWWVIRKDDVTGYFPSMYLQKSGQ
The experiment in a line: Fluorescence polarization.

In assay [4] the test system is p47phox and p67phox translocation in neutrophils. In kind it is cell-based, human. Particulars: 10 μM ebselen.
Assay [5] has as its target T3, binding of MBP-p22-C and GST-p47-bis-SH3 (Homo sapiens, UniProt P14598).
T3 sequence (P14598 156-285): T2 sequence (P14598 156-285)
The experiment in a line: Pull-down assay of MBP-p22-C with GST-p47-bis-SH3 on glutathione agarose beads. Conditions: 20 μM ebselen.

The subject of assay [6] is protein-kinase-C-mediated phosphorylation of p47phox. The experiment in a line: PKC-mediated phosphorylation of p47phox in neutrophils. In kind it is cell-based, human. Conditions: 10 μM ebselen.
The target in assay [7] is T4, p67phox-p47phox association (Homo sapiens, UniProt P14598).
T4 sequence (P14598 1-390): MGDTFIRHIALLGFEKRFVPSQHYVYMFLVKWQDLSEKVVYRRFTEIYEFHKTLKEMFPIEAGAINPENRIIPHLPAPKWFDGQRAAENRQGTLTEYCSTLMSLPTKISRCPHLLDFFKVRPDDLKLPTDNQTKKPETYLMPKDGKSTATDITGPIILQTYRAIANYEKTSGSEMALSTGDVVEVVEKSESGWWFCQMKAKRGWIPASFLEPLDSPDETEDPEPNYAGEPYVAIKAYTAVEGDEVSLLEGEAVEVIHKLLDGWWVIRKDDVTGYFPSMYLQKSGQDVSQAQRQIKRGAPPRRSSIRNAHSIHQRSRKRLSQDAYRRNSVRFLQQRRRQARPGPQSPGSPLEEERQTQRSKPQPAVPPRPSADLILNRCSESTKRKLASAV
The experiment in a line: Co-immunoprecipitation of p67phox with p47phox in PMA-stimulated neutrophils. In kind it is cell-based. Particulars: 10 μM ebselen, PMA-stimulated cells.

The conditions of assay [8]: ref Muller et al.,1984; cited from earlier work.
Assay [9] concerns guinea pig alveolar macrophages. Conditions: read-out: IC50 for inhibition in guinea pig macrophages; ref Leurs et al.,1989; cited from earlier work.
For another assay, the system named is PKC. Conditions: ref Cotgreave et al.,1989; cited from earlier work.
In the next assay the test system is Kupffer cells. Particulars: read-out: IC50 for reactive oxygen by luminol luminescence; ref Wang et al.,1992; cited from earlier work.
The next assay deals with Nox1 (Homo sapiens, UniProt Q9Y5S8). The assay can be described thus: Nox1 activity in whole cells.
In a further assay the target is T5, Nox4 (Homo sapiens, UniProt Q9NPH5).
T5 sequence (Q9NPH5 1-578): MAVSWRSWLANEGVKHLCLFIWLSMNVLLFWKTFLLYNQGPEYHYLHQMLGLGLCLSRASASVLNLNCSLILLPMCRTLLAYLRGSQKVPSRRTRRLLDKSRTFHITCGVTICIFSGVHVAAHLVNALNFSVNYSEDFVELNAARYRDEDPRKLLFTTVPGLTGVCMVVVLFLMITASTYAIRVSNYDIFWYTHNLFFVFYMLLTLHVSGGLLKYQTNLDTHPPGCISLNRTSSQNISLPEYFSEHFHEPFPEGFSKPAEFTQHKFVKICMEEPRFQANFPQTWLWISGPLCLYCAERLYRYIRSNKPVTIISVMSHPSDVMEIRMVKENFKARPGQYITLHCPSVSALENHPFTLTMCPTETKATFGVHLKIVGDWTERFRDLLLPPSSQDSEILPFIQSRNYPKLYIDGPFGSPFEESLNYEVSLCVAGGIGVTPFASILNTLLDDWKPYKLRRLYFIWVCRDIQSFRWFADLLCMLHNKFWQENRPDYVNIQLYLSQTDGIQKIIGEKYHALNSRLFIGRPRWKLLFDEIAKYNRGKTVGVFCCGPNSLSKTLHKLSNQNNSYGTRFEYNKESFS
T5 sequence (P13498 2-195 partner limits assumed): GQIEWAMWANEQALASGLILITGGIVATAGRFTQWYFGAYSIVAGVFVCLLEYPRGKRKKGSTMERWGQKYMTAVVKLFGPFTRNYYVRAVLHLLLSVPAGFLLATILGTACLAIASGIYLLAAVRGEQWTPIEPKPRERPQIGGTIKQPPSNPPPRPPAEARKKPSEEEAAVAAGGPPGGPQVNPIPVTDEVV
The assay can be described thus: Nox4 activity in whole cells. The class given is cell-based. Particulars: read-out: EC50 for inhibition of Nox4 activity in whole cell assay; HEK/Nox4rb cells; ns = no significant inhibition.

In assay [10] the target is T6, GST-tagged p47phox-bis-SH3 domain (GST-p47-bis-SH3) (human, UniProt P14598 156-285).
T6 sequence (looked up): T2 sequence (P14598 156-285)
The assay can be described thus: fluorescence polarisation.

The mark [11] stands for this setting: comparator as named in text (parent Thr101 or fluoro-derivative j).

Chain of Nox1 (Q8NFA2 whole entry partner): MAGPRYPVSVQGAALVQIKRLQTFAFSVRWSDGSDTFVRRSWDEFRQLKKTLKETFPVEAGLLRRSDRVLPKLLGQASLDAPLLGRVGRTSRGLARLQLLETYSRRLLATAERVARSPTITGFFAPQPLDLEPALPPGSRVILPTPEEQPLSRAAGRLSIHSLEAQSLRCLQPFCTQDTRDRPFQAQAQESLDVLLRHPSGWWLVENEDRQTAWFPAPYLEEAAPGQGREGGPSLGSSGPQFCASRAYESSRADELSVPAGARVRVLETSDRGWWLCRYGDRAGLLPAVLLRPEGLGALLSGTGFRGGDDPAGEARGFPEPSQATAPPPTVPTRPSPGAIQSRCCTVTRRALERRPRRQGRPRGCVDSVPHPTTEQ
Chain of Nox1 (Q9Y5S8 whole entry): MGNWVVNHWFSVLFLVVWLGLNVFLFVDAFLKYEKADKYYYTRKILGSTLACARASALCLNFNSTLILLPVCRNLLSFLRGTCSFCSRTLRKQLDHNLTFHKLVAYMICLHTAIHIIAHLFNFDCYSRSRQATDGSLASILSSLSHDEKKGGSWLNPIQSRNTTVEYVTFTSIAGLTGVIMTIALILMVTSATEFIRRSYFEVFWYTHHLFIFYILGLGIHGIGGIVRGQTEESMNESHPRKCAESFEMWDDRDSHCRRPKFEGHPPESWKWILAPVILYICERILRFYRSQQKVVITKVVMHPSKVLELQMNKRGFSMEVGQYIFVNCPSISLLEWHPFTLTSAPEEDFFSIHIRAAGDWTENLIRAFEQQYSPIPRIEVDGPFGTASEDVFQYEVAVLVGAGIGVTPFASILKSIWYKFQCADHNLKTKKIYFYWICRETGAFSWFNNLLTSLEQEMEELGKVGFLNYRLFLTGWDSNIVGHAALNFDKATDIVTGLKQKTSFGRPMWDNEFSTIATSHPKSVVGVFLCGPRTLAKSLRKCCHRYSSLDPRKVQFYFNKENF

Consider `c1ccc2c(c1)[I+]c1ccccc1-2` [DPI, diphenylene iodonium], for which the “Luminescence relative to incubations containing DMSO vehicle alone” value at Nox2 [1] (cell-free Nox2 assay, data not shown) was “less than 10%”. For the same molecule, the “Luminescence relative to DMSO-treated cells” value at Nox2 [2] (neutrophils, 10 uM DPI, data not shown) is given as “less than 10%”.
Regarding `O=c1c2ccccc2[se]n1-c1ccccc1` [Ebselen], the “IC50 in the FP binding assay” value in [3] (rho-PRD plus GST-p47-bis-SH3, 1% DMSO) is recorded as “submicromolar”. For the same molecule, the “Effect on PMA-stimulated translocation of p47phox and p67phox” value in [4] (500 nM PMA) is “completely blocked”. The “Effect on translocation in the absence of PMA” value in assay [4] (no PMA) is given as “no effect on translocation”. The “Inhibition of binding of MBP-p22-C and GST-p47-bis-SH3 in pulldown” value in assay [5] is recorded as “markedly inhibited”. Also, the “Effect on protein-kinase-C-mediated phosphorylation of p47phox or other neutrophil proteins (words)” value is recorded as “did not affect” in assay [6] and “does not inhibit PKC phosphorylation” in [6] (listed as ebselen). Besides, the “Effect on co-immunoprecipitation of p67phox with p47phox (words)” value in assay [7] is given as “did affect the ability of p67phox to coimmunoprecipitate with p47phox”; in assay [7] (listed as ebselen) it was “diminishes the co-immunoprecipitation”. The “Optimum concentration needed to catalyze H2O2 peroxidase activity” value in [8] is “about 20 μM”. The values for the IC50 (in assay [9]; with Kupffer cells) were around 20000 nM and around 1000 nM, respectively. The “Concentration inhibiting purified PKC enzyme” value in the assay with PKC was “submicromolar”. The midpoint of the response at Nox1, the EC50, lay at 150 nM.
Turning to `O=c1c2ccccc2sn1-c1ccccc1` [Thr101], the IC50 was 4000 nM and ~4000 nM in assay [3] (read-out: IC50 in the FP binding assay, rho-PRD plus GST-p47-bis-SH3, 1% DMSO); 4000 nM and ~4000 nM on Nox2 [1] (read-out: IC50 in the cell-free Nox2 activity assay, neutrophil membranes, 1% DMSO). The EC50 came to 300 nM on Nox2 [2] (read-out: EC50 for inhibition of Nox2 activity in whole cell assay, human neutrophils, ns = no significant inhibition); 8000 nM on Nox4; 3000 nM on Nox1 (read-out: EC50 for inhibition of Nox1 activity in whole cell assay, HEK/Nox1rb cells, ns = no significant inhibition).
In the case of `COC(=O)c1ccc(-n2sc3ccccc3c2=O)cc1` [l], in assay [3] (setting [11]), the “Fold improvement in binding versus comparator compound” value is ~ 10 fold. The IC50 in assay [3] (read-out: Potency in the binding assay, FP assay) amounted to 500 nM. In addition, the “Fold improvement in activity versus comparator compound” value on Nox2 [1] (setting [11]) was ~ 10 fold.

B1: rhodamine-labeled peptide corresponding to the PRD of p22phox (rho-PRD) (peptide)
peptide: rhodamine-PPTNPPPRPPAE-NH2
modifications: reading uncertain
As for B1, in assay [10], the Kd is 20 to 40 nM and 20 nM.
